The results in this text go back to patent US20230146233A1, “A CLASS OF POLYCYCLIC COMPOUNDS INHIBITING RNA HELICASE DHX33 AND THE APPLICATION THEREOF” (Shenzhen KeYe Life Technologies, Co., Ltd, priority 2020, published 2023).

This experiment has as its system U251-MG cells. Description: Half-maximal cell-inhibitory concentration on U251-MG cells (CCK-8). The class given is cell-based. The settings on record: Homo sapiens, U-251, U251-MG cells (DHX33-overexpressing cancer cell strain), 48 hours, read-out: IC50 (half-maximal inhibitory concentrations of compounds on U251-MG cells). On the procedure:
U251-MG cells were purchased from the cell bank of the Chinese Academy of Sciences. Cells were cultured in MEM medium containing 10% fetal bovine serum (FBS), 2 mM L-glutammie, streptomycmn and penicillin. The growth conditions were set as follows: a humidified cell incubator (37° C., 5% CO2). Cells were passaged every 3 days and were discarded after 10 passages.
U251-MG cells (a […]-overexpressing cancer cell strain) were seeded on a 96-well plate at 1×10^4 cells/100 μl/well. After the cells were completely attached, the compounds were added to the cell culture medium at a concentration of 5 nM, 10 nM, 25 nM, 50 nM, 100 nM, […], 500 nM, 1000 nM, 2000 nM, […] or 20 μM, and the resulting mixture was uniformly mixed with a multichannel pipette. After the cells were incubated with the compound for 48 hours, CCK-8 reagent (Yeasen Biotechnology (Shanghai) Co., Ltd.) was added to the medium in the 96-well plate in accordance with the standard procedure. After being incubated for 2 hours, the plate was read with a microplate reader (OD=450 nm). The experiment was repeated three times, the inhibition curve of the compound at different concentrations was plotted, and the half-maximal inhibitory concentration (IC50) of the compound was calculated.
`Cc1oc(-n2c(C)cc(/C=C(\C#N)c3nc4ccc(Cl)cc4[nH]3)c2C)c(C#N)c1C` [AB24201, (E)-2-(3-(2-(6-chloro-1H-benzo[d]imidazol-2-yl)-2-cyanovinyl)-2,5-dimethyl-1H-pyrrol-1-yl)-4,5-dimethylfuran-3-carbonitrile]: the IC50 fell in the range of 1 to 5 µM. On to `Cc1ccc2nc(/C(C#N)=C/c3cc(C)n(-c4oc(C)c(C)c4C#N)c3C)[nH]c2c1` [AB24203, (E)-2-(3-(2-cyano-2-(6-methyl-1H-benzo[d]imidazol-2-yl]vinyl)-2,5-dimethyl-1H-pyrrol-1-yl)-4,5-dimethylfuran-3-carbonitrile], for which the IC50 is 1 to 5 µM. Regarding `Cc1oc(-n2c(C)cc(/C=C(\C#N)c3nc4ccc(C(=O)NCCN(C)C)cc4[nH]3)c2C)c(C#N)c1C` [AB24206, (E)-2-(1-cyano-2-(1-(3-cyano-4,5-dimethylfuran-2-yl)-2,5-dimethyl-1H-pyrrol-3-yl)vinyl)-N-(2-(dimethylamino)ethyl)-1H-benzo[d]imidazole-6-carboxamide], the IC50 was in the range of 1 to 5 µM. For `CCOC(=O)c1ccc2nc(/C(C#N)=C/c3cc(C)n(-c4oc(C)c(C)c4C#N)c3C)[nH]c2c1` [AB24208, ethyl (E)-2-(1-cyano-2-(1-(3-cyano-4,5-dimethylfuran-2-yl)-2,5-dimethyl-1H-pyrrol-3-yl)vinyl)-1H-benzo[d]imidazole-6-carboxylate], the IC50 lay within 5 to 20 µM.

For the compound `Cc1oc(-n2c(C)cc(/C=C(\C#N)c3nc4ccc(Br)cc4[nH]3)c2C)c(C#N)c1C` [AB24213, (E)-2-(3-(2-(6-bromo-1H-benzo[d]imidazol-2-yl)-2-cyanovinyl)-2,5-dimethyl-1H-pyrrol-1-yl)-4,5-dimethylfuran-3-carbonitrile], the IC50 was 1 to 5 µM.

Turning to `Cc1oc(-n2c(C)cc(/C=C(\C#N)c3nc4cc(Cl)c(Cl)cc4[nH]3)c2C)c(C#N)c1C` [AB24214, (E)-2-(3-(2-cyano-2-(5,6-dichloro-1H-benzo[d]imidazol-2-yl)vinyl)-2,5-dimethyl-1H-pyrrol-1-yl)-4,5-dimethylfuran-3-carbonitrile], the IC50 is 5 to 20 µM. The figure for `Cc1oc(-n2c(C)cc(/C=C(\C#N)c3nc4ccc([N+](=O)[O-])cc4[nH]3)c2C)c(C#N)c1C` [AB24217, (E)-2-(3-(2-cyano-2-(6-nitro-1H-benzo[d]imidazol-2-yl)vinyl)-2,5-dimethyl-1H-pyrrol-1-yl)-4,5-dimethylfuran-3-carbonitrile] is 5 to 20 µM. `Cc1oc(-n2c(C)cc(/C=C(\C#N)c3nc4ccc(N)cc4[nH]3)c2C)c(C#N)c1C` [AB24221, (E)-2-(3-(2-(6-amino-1H-benzo[d]imidazol-2-yl)-2-cyanovinyl)-2,5-dimethyl-1H-pyrrol-1-yl)-4,5-dimethylfiran-3-carbonitrile]: the IC50 was in the range of 5 to 20 µM. The figure for `Cc1cc(/C=C(\C#N)c2nc3ccccc3[nH]2)c(C)n1-c1ccc(C#N)cc1` [AB24223] is 5 to 20 µM; for `Cc1oc(-n2c(C)cc(/C=C(\C#N)c3nc4ccc(CO)cc4[nH]3)c2C)c(C#N)c1C` [AB24225, (E)-2-(3-(2-cyano-2-(6-(hydroxymethyl)-1H-benzo[d]imidazol-2-yl)vinyl)-2,5-dimethyl-1H-pyrrol-1-yl)-4,5-dimethylfuran-3-carbonitrile] it is 1 to 5 µM. The figure for `Cc1cc(/C=C(\C#N)c2nc3ccccc3[nH]2)c(C)n1-c1ccccc1C#N` [AB24227] is 5 to 20 µM; for `COc1cc2nc(/C(C#N)=C/c3cc(C)n(-c4oc(C)c(C)c4C#N)c3C)[nH]c2cc1OC` [AB24229, (E)-2-(3-(2-cyano-2-(5,6-dimethoxy-1H-benzo[d]imidazol-2-yl)vinyl)-2,5-dimethyl-H-pyrrol-1-yl)-4,5-dimethylfuran-3-carbonitrile] it is 1 to 5 µM.

Consider `Cc1cc(/C=C(\C#N)c2nc3ccccc3[nH]2)c(C)n1-c1cccs1` [AB24233], for which the IC50 was in the range of 5 to 20 µM.

With `Cc1ccc(-n2c(C)cc(/C=C(\C#N)c3nc4ccccc4[nH]3)c2C)cc1` [AB24237], the IC50 was in the range of 5 to 20 µM.

For the compound `Cc1oc(-n2c(C)cc(/C=C(\C#N)c3nc4cc(Cl)cc(Cl)c4[nH]3)c2C)c(C#N)c1C` [AB24239], the IC50 lay in the range of 1 to 5 µM.

For `COc1cc2[nH]c(/C(C#N)=C/c3cc(C)n(-c4oc(C)c(C)c4C#N)c3C)nc2cc1F` [AB24246, (E)-2-(3-(2-cyano-2-(5-fluoro-6-methoxy-1H-benzo[d]imidazol-2-yl]vinyl)-2,5-dimethyl-1H-pyrrol-1-yl)-4,5-dimethylfuran-3-carbonitrile], the IC50 lay in the range of 1 to 5 µM. Take `Cc1cc(/C=C(\C#N)c2nc3ccccc3[nH]2)c(C)n1-c1ccccn1` [AB24258]: the IC50 lay in the range of 5 to 20 µM.

Consider `COc1cc2[nH]c(/C(C#N)=C/c3cc(C)n(-c4oc(C)c(C)c4C#N)c3C)nc2cc1Br` [AB24266, (E)-2-(3-(2-(5-bromo-6-methoxy-1H-benzo[d]imidazol-2-yl]-2-cyanovinyl)-2,5-dimethyl-1H-pyrrol-1-yl)-4,5-dimethylfuran-3-carbonitrile], for which the IC50 lay in the range of 1 to 5 µM. On to `CC(=O)Nc1ccc(-n2c(C)cc(/C=C(\C#N)c3nc4ccccc4[nH]3)c2C)cc1` [AB24267], for which the IC50 was 5 to 20 µM. The figure for `COC(=O)c1c(-n2c(C)cc(/C=C(\C#N)c3nc4ccccc4[nH]3)c2C)sc(C)c1C` [AB24273, methyl (E)-2-(3-(2-(1H-benzo[d]imidazol-2-yl)-2-cyanovinyl)-2,5-dimethyl-1H-pyrrol-1-yl)-4,5-dimethylthiophene-3-carboxylate] is 0.1 to 1 µM; for `Cc1cc(/C=C(\C#N)c2nc3ccccc3[nH]2)c(C)n1-c1csc(C#N)c1` [AB24276] it is 5 to 20 µM; for `Cc1csc(-n2c(C)cc(/C=C(\C#N)c3nc4ccccc4[nH]3)c2C)c1C#N` [AB24277] it is 5 to 20 µM.

Regarding `COc1ccc2nc(/C(C#N)=C/c3cc(C)n(-c4oc(C)c(C)c4C#N)c3C)[nH]c2n1` [AB24281, (E)-2-(3-(2-cyano-2-(5-methoxy-3H-imidazo[4,5-b]pyridin-2-yl)vinyl)-2,5-dimethyl-1H-pyrrol-1-yl)-4,5-dimethylfuran-3-carbonitrile], the IC50 was in the range of 1 to 5 µM.

As for `Cc1nn(-c2ccccc2)c(C)c1/C=C(\C#N)c1nc2ccccc2[nH]1` [AB24284, (E)-2-(1H-benzo[d]imidazol-2-yl)-3-(3,5-dimethyl-1-phenyl-1H-pyrazol-4-yl)acrylonitrile], the IC50 was 5 to 20 µM.

`Cc1nn(-c2cccc(C(F)(F)F)c2)c(C)c1/C=C(\C#N)c1nc2ccccc2[nH]1` [AB24285, (E)-2-(1H-benzo[d]imidazol-2-yl)-3-(3,5-dimethyl-1-(3-(trifluoromethyl)phenyl)-1H-pyrazol-4-yl)acrylonitrile]: the IC50 fell in the range of 5 to 20 µM. Turning to `Cc1oc(-n2c(C)cc(/C=C(\C#N)c3nc4cc5c(cc4[nH]3)OCCO5)c2C)c(C#N)c1C` [AB24287, (E)-2-(3-(2-cyano-2-(6,7-dihydro-1H-[1,4]dioxin[2′,3′: 4,5]benzo[1,2-d]imidazol-2-yl)vinyl)-2,5-dimethyl-1H-pyrrol-1-yl)-4,5-dimethylfuran-3-carbonitrile], the IC50 lay in the range of 1 to 5 µM.

As to `COc1cc2nc(/C(C#N)=C/c3cc(C)n(-c4ccncc4Cl)c3C)[nH]c2cn1` [AB24289, (E)-3-(1-(3-chloropyridin-4-yl)-2,5-dimethyl-1H-pyrrol-3-yl)-2-(6-methoxy-3H-imidazo[4,5-c]pyridin-2-yl)acryonitrile], the IC50 was in the range of 1 to 5 µM. `Cc1nn(-c2ccccc2OC(F)(F)F)c(C)c1/C=C(\C#N)c1nc2ccccc2[nH]1` [AB24290, (E)-2-(1H-benzo[d]imidazol-2-yl)-3-(3,5-dimethyl-1-(2-(trifluoromethoxy)phenyl)-1H-pyrazol-4-yl)acrylonitrile]: the IC50 was 5 to 20 µM.

Regarding `COc1cc2nc(/C(C#N)=C/c3cc(C)n(-c4ccncc4C)c3C)[nH]c2cn1` [AB24295, (E)-3-(2,5-dimethyl-1-(3-methylpyridin-4-yl)-1H-pyrrol-3-yl)-2-(6-methoxy-3H-imidazo[4,5-c]pyridin-2-yl)acrylonitrile], the IC50 was 1 to 5 µM. The figure for `COc1cc2nc(/C(C#N)=C/c3cc(C)n(-c4ccncc4F)c3C)[nH]c2cn1` [AB24300, (E)-3-(1-(3-fluoropyridin-4-yl)-2,5-dimethyl-1H-pyrrol-3-yl)-2-(6-methoxy-3H-imidazo[4,5-c]pyridin-2-yl)acrylonitrile] is 1 to 5 µM. Consider `COc1cnc2[nH]c(/C(C#N)=C/c3cc(C)n(-c4sc(C)c(C)c4C#N)c3C)nc2c1` [AB24301, (E)-2-(3-(2-cyano-2-(6-methoxy-3H-imidazo[4,5-b]pyridin-2-yl)vinyl)-2,5-dimethyl-1H-pyrrol-1-yl)-4,5-dimethylthiophene-3-carbonitrile], for which the IC50 lay within 0.1 to 1 µM.

With `COc1cncc2nc(/C(C#N)=C/c3cc(C)n(-c4sc(C)c(C)c4C#N)c3C)[nH]c12` [AB24302, (E)-2-(3-(2-cyano-2-(7-methoxy-1H-imidazo[4,5-c]pyridyl-2-yl)vinyl)-2,5-dimethyl-1H-pyrrol-1-yl)-4,5-dimethylthiophene-3-carbonitrile], the IC50 was in the range of 1 to 5 µM. The figure for `COc1ccc2nc(/C(C#N)=C/c3cc(C)n(-c4ccccc4C#N)c3C)[nH]c2c1` [AB24307, (E)-2-(3-(2-cyano-2-(6-methoxy-1H-benzo[d]imidazol-2-yl]vinyl)-2,5-dimethyl-1H-pyrrol-1-yl)benzonitrile] is 5 to 20 µM.
